Experimental data as given in ChEMBL document CHEMBL4138123, “Design, synthesis and biological evaluation of novel pyrazolochalcones as potential modulators of PI3K/Akt/mTOR pathway and inducers of apoptosis in breast cancer cells” (Eur J Med Chem, 2017).

How the values were obtained:
Format in all cases: functional
MOLT-4 [1] = experiment: Cytotoxicity against human MOLT4 cells assessed as growth inhibition after 48 hrs by sulforhodamine B assay; details: MOLT-4, 48 h
NCI-H226 = experiment: Cytotoxicity against human NCI-H226 cells assessed as growth inhibition after 48 hrs by sulforhodamine B assay; details: NCI-H226, 48 h
SNB-19 [2] = experiment: Cytotoxicity against human SNB19 cells assessed as growth inhibition after 48 hrs by sulforhodamine B assay; details: SNB-19, 48 h
UACC-257 [3] = experiment: Cytotoxicity against human UACC257 cells assessed as growth inhibition after 48 hrs by sulforhodamine B assay; details: UACC-257, 48 h
TK-10 [4] = experiment: Cytotoxicity against human TK10 cells assessed as growth inhibition after 48 hrs by sulforhodamine B assay; details: TK-10, 48 h
MCF7 = experiment: Cytotoxicity against human MCF7 cells assessed as growth inhibition after 48 hrs by sulforhodamine B assay; details: MCF7, 48 h
CCRF-CEM = experiment: Cytotoxicity against human CCRF-CEM cells assessed as cell growth at 0.01 uM after 48 hrs by sulforhodamine B assay relative to control; details: read-out: Activity
786-0 = experiment: Cytotoxicity against human 786-0 cells assessed as cell growth at 0.01 uM after 48 hrs by sulforhodamine B assay relative to control; details: 786-0, 48 h, read-out: Activity
NCI/ADR-RES = experiment: Cytotoxicity against human NCI/ADR-RES cells assessed as cell growth at 0.01 uM after 48 hrs by sulforhodamine B assay relative to control; details: read-out: Activity
IGROV-1 [5] = experiment: Cytotoxicity against human IGROV1 cells assessed as cell growth at 0.01 uM after 48 hrs by sulforhodamine B assay relative to control; details: IGROV-1, 48 h, read-out: Activity
U-251 = experiment: Cytotoxicity against human U251 cells assessed as cell growth at 0.01 uM after 48 hrs by sulforhodamine B assay relative to control; details: U-251, 48 h, read-out: Activity
NCI-H322M [6] = experiment: Cytotoxicity against human NCI-H322M cells assessed as cell growth at 0.01 uM after 48 hrs by sulforhodamine B assay relative to control; details: read-out: Activity
HOP-62 = experiment: Cytotoxicity against human HOP62 cells assessed as cell growth at 0.01 uM after 48 hrs by sulforhodamine B assay relative to control; details: HOP-62, 48 h, read-out: Activity
NCI-H522 = experiment: Cytotoxicity against human NCI-H522 cells assessed as cell growth at 0.1 uM after 48 hrs by sulforhodamine B assay relative to control; details: NCI-H522, 48 h, read-out: Activity
SNB-19 [7] = experiment: Cytotoxicity against human SNB19 cells assessed as cell growth at 0.1 uM after 48 hrs by sulforhodamine B assay relative to control; details: SNB-19, 48 h, read-out: Activity
IGROV-1 [8] = experiment: Cytotoxicity against human IGROV1 cells assessed as cell growth at 0.1 uM after 48 hrs by sulforhodamine B assay relative to control; details: IGROV-1, 48 h, read-out: Activity
TK-10 [9] = experiment: Cytotoxicity against human TK10 cells assessed as cell growth at 0.1 uM after 48 hrs by sulforhodamine B assay relative to control; details: TK-10, 48 h, read-out: Activity
HL-60(TB) [10] = experiment: Cytotoxicity against human HL-60(TB) cells assessed as cell growth at 1 uM after 48 hrs by sulforhodamine B assay relative to control; details: HL-60, 48 h, read-out: Activity
NCI-H322M [11] = experiment: Cytotoxicity against human NCI-H322M cells assessed as cell growth at 1 uM after 48 hrs by sulforhodamine B assay relative to control; details: read-out: Activity
HCC 2998 = experiment: Cytotoxicity against human HCC2998 cells assessed as cell growth at 1 uM after 48 hrs by sulforhodamine B assay relative to control; details: HCC 2998, 48 h, read-out: Activity
SNB-19 [12] = experiment: Cytotoxicity against human SNB19 cells assessed as cell growth at 1 uM after 48 hrs by sulforhodamine B assay relative to control; details: SNB-19, 48 h, read-out: Activity
T47D = experiment: Cytotoxicity against human T47D cells assessed as cell growth at 1 uM after 48 hrs by sulforhodamine B assay relative to control; details: read-out: Activity
RPMI-8226 [13] = experiment: Cytotoxicity against human RPMI8226 cells assessed as cell growth at 10 uM after 48 hrs by sulforhodamine B assay relative to control; details: RPMI-8226, 48 h, read-out: Activity
NCI-H23 = experiment: Cytotoxicity against human NCI-H23 cells assessed as cell growth at 10 uM after 48 hrs by sulforhodamine B assay relative to control; details: NCI-H23, 48 h, read-out: Activity
UACC-257 [14] = experiment: Cytotoxicity against human UACC257 cells assessed as cell growth at 10 uM after 48 hrs by sulforhodamine B assay relative to control; details: UACC-257, 48 h, read-out: Activity
ACHN = experiment: Cytotoxicity against human ACHN cells assessed as cell growth at 10 uM after 48 hrs by sulforhodamine B assay relative to control; details: read-out: Activity
MDA-MB-468 = experiment: Cytotoxicity against human MDA-MB-468 cells assessed as cell growth at 10 uM after 48 hrs by sulforhodamine B assay relative to control; details: MDA-MB-468, 48 h, read-out: Activity
HL-60(TB) [15] = experiment: Cytotoxicity against human HL-60(TB) cells assessed as cell growth at 100 uM after 48 hrs by sulforhodamine B assay relative to control; details: HL-60, 48 h, read-out: Activity
MOLT-4 [16] = experiment: Cytotoxicity against human MOLT4 cells assessed as cell growth at 100 uM after 48 hrs by sulforhodamine B assay relative to control; details: MOLT-4, 48 h, read-out: Activity
RPMI-8226 [17] = experiment: Cytotoxicity against human RPMI8226 cells assessed as cell growth at 100 uM after 48 hrs by sulforhodamine B assay relative to control; details: RPMI-8226, 48 h, read-out: Activity
HCT-15 = experiment: Cytotoxicity against human HCT15 cells assessed as cell growth at 100 uM after 48 hrs by sulforhodamine B assay relative to control; details: HCT-15, 48 h, read-out: Activity
SF-268 = experiment: Cytotoxicity against human SF268 cells assessed as cell growth at 100 uM after 48 hrs by sulforhodamine B assay relative to control; details: SF-268, 48 h, read-out: Activity
M14 = experiment: Cytotoxicity against human M14 cells assessed as cell growth at 100 uM after 48 hrs by sulforhodamine B assay relative to control; details: M14, 48 h, read-out: Activity
MDA-MB-435 = experiment: Cytotoxicity against human MDA-MB-435 cells assessed as cell growth at 100 uM after 48 hrs by sulforhodamine B assay relative to control; details: MDA-MB-435, 48 h, read-out: Activity
SN12C = experiment: Cytotoxicity against human SN12C cells assessed as cell growth at 100 uM after 48 hrs by sulforhodamine B assay relative to control; details: read-out: Activity
[18] = read-out: LC50 (the source's name)

## COc1ccc(-c2cc(/C=C/C(=O)c3ccc(N)cc3)[nH]n2)cc1
MOLT-4 [1]
  GI50: 2.32 µM
  TGI: 9.48 µM
MOLT-4 [1]; [18]
  CC50: > 100 µM
NCI-H226
  GI50: 2 µM
  LC50 (concentration killing 50% of cells): 92.1 µM
  TGI: 5.57 µM
SNB-19 [2]
  GI50: 2.29 µM
  TGI: 11.6 µM
SNB-19 [2]; [18]
  CC50: 44.3 µM
UACC-257 [3]
  GI50: 1.9 µM
  LC50: 9.36 µM
  TGI: 4.21 µM
TK-10 [4]
  GI50: 2.81 µM
  LC50: 39.8 µM
  TGI: 13 µM
MCF7
  GI50: 0.78 µM
  LC50: 34.1 µM
  TGI: 3.84 µM
CCRF-CEM
  growth at 0.01 µM: 99%
786-0
  growth at 0.01 µM: 96%
NCI/ADR-RES
  growth at 0.01 µM: 101%
IGROV-1 [5]
  growth at 0.01 µM: 98%
U-251
  growth at 0.01 µM: 97%
NCI-H322M [6]
  growth at 0.01 µM: 95%
HOP-62
  growth at 0.01 µM: 107%
NCI-H522
  growth at 0.1 µM: 85%
SNB-19 [7]
  growth at 0.1 µM: 89%
IGROV-1 [8]
  growth at 0.1 µM: 91%
TK-10 [9]
  growth at 0.1 µM: 95%
HL-60(TB) [10]
  growth at 1 µM: 61%
NCI-H322M [11]
  growth at 1 µM: 69%
HCC 2998
  growth at 1 µM: 100%
SNB-19 [12]
  growth at 1 µM: 75%
T47D
  growth at 1 µM: 60%
RPMI-8226 [13]
  growth at 10 µM: -35%
NCI-H23
  growth at 10 µM: 8%
UACC-257 [14]
  growth at 10 µM: -54%
ACHN
  growth at 10 µM: 2%
MDA-MB-468
  growth at 10 µM: -62%
HL-60(TB) [15]
  growth at 100 µM: -47%
MOLT-4 [16]
  growth at 100 µM: -47%
RPMI-8226 [17]
  growth at 100 µM: -67%
HCT-15
  growth at 100 µM: -59%
SF-268
  growth at 100 µM: -61%
M14
  growth at 100 µM: -71%
MDA-MB-435
  growth at 100 µM: -75%
SN12C
  growth at 100 µM: -78%
